The record followed here is PMC8880588, “In-Silico Screening of Novel Synthesized Thienopyrimidines Targeting Fms Related Receptor Tyrosine Kinase-3 and Their In-Vitro Biological Evaluation” (Pharmaceuticals, 2022).

Data set [1] relates to HT-29. The data set can be described thus: MTT dose-response anti-proliferative assay, HT-29. Format: cell-based. As to conditions: Homo sapiens; HT-29, MTT. The text has this: (§1) Doxorubicin was used as a positive reference for the comparison of anticancer activities. The results are tabulated as IC50 value in the μM range, Table 1.
(§2) Three cancer cell lines were used in the antiproliferative activities experiments, namely, breast cancer cell line (MCF-7) and human hepatoma cell line (HepG-2), and Colorectal cell line (HT-29). The source of cell lines is the health sciences research center-core lab- at princess Nou-rah bint Abdulrahman university. All cell lines were maintained in their optimum media (RPMI-1640 or DMEM) supplemented with 10% fetal bovine serum, 100 U/mL penicillin, and 100 μg/mL streptomycin and incubated in a humidified atmosphere at 37 °C with 5% CO2.
(§3) The MTT assay was used to evaluate the anti-proliferative effect of the synthesized compounds against three human cancer cell lines hepatocellular carcinoma (HepG-2), breast cancer (MCF-7) and Colorectal carcinoma (HT-29). For the preliminary screening, HT-29 cells were seeded in 96-well plates (Thermo Scientific, Waltham, MA, USA)(10^3 cells/well) and incubated for 24 h before the treatment. Then, cells were treated with two concentrations (10 and 100 µM) of the tested compounds for 72 h. After the exposure, MTT assay protocol was performed as described. After evaluation of the preliminary anticancer activity, the promising synthesized compounds (8, 9a, 9b, 10a, and 11) were selected and examined against three cell lines (HepG-2, MCF-7, and HT-29). Cells were exposed to serial concentration ([…]) of the selected compounds and dose–response curves were determined to calculate their IC50 values.

Data set [2] addresses T1, FLT3 (Homo sapiens, UniProt P36888).
T1 construct: purchased BD Biosciences, San Diego, CA, USA
T1 sequence (P36888 27-993): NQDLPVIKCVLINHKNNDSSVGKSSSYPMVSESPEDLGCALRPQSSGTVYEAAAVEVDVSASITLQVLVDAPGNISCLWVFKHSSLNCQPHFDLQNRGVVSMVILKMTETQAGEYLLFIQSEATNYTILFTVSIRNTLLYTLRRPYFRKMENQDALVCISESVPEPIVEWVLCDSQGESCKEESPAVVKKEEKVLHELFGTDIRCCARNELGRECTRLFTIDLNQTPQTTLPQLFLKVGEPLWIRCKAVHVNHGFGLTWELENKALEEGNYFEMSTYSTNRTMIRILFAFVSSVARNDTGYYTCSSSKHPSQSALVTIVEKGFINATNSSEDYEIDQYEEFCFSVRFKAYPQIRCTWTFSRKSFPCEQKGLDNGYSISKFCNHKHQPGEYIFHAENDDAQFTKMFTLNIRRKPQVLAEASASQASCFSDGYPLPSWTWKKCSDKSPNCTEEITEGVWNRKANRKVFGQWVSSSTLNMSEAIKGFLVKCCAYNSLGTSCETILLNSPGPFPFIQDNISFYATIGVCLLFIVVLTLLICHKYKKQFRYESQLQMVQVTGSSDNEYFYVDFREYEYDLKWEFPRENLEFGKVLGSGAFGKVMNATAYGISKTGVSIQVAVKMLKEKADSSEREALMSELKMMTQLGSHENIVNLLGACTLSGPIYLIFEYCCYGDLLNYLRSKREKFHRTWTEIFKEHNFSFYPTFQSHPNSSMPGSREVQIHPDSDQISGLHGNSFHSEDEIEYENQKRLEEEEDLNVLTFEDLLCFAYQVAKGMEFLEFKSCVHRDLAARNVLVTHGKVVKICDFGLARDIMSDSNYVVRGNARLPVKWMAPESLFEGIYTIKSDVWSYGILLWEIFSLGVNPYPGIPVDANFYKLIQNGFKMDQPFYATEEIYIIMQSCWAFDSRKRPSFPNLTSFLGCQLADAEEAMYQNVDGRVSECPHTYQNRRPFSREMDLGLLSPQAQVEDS
Kind of data set: In-vitro FLT3 kinase enzyme inhibition assay (FLT3 Kinase Assay Kit). Format: biochemical. Conditions: FLT3 1.5 ng/µL, 45 min, mean ± SD, n = 3; read-out: FLT3 kinase inhibitory activity IC50. How it is done:
FLT3 Kinase Assay Kit (BD Biosciences, San Diego, CA, USA) was used to determine the inhibitory selectivity of the selected compounds towards the FLT3 enzyme. briefly, serial dilution of the selected compounds was incubated with FLT3 (1.5 ng/µL) for 45 min in a kinase reaction buffer. The FLT3 enzyme reaction was halted and measured by quantifying the amount of ADP produced during the enzyme reaction. Luminescence values were measured by a Varioskan™ LUX multimode microplate reader (Thermo Scientific, Waltham, MA, USA). IC50 was calculated with nonlinear regression compared with untreated reaction using Prism version 8.4.3 (GraphPad).

The test system of data set [3] is MCF-7. Kind of data set: MTT dose-response anti-proliferative assay, MCF-7. In kind it is cell-based, human. As to conditions: Homo sapiens, MCF7, MCF-7, MTT.
Description: as §1, §2, §3

In data set [4] the test system is normal colon epithelial cells (CCD 841 CoN). The data set can be described thus: Selectivity assay (MTT) on non-cancerous cells. In kind it is cell-based. As to conditions: for IC50: Homo sapiens, CCD 841 CoN, 72 h, MTT, read-out: IC50 of Non-Cancer Cells CCD 841; for Selectivity Index (SI) (IC50 of CCD 841/IC50 of HT29): ratio normal CCD 841 / cancer HT-29, 72 h. The method, then:
In an attempt to evaluate the anticancer activity of the compounds, selectivity assay was performed and compounds’ selectivity to malignant cells was determined, reflected by their selectivity index. The selectivity index (SI) was calculated by the ratio of the IC50 value of the selected compounds on normal colon epithelial cells (CCD 841 CoN) to the IC50 value of the compounds on cancer cells (HT-29). […] However, based on the designed strategy, this high selectivity towards cancer cells may be attributed to their ability to target oncogenic kinases.
Cells were plated in 96-well plates (10^3 cells/well), and after 24 h, the compounds in concentrations (0.1 to 100 μM) were incubated for 72 h. MTT procedure was then performed, the ratio of IC50 values of the compounds on non-cancerous cells (CCD 841 CoN) to the IC50 values of the compounds on cancer cells (HT-29) was determined as reported, [23, 24] using the following equation, SI = IC50 of normal cells/IC50 of cancer cells.

Data set [5] has as its system HepG-2. Kind of data set: MTT dose-response anti-proliferative assay, HepG-2. Conditions: Homo sapiens, HepG2; HepG-2, MTT. Format: cell-based.
Description: as §1, §2, §3

In data set [6] the test system is HT-29 cells. The data set can be described thus: Preliminary antiproliferative assessment (MTT) at 10 and 100 μM. In kind it is cell-based, human. As to conditions: for growth inhibitory activities against HT-29 cells (preliminary assay): 10 and 100 μM, 72 h; for cytotoxic profile: result in words. The method, then:
All synthesized compounds were subjected to preliminary antiproliferative assessment that was performed on HT-29 cells using concentrations 10 and 100 μM of synthesized compounds for 72 h and the percentage of cell viability was then calculated. […] Thus, all five compounds were further studied by a detailed dose–response relationship against three different cancerous cell lines HT-29, Hep-G2 and MCF-7.
as §2, §3

The test system of data set [7] is protein kinases extracted from HT-29 cell line. The data set can be described thus: Kinase inhibition assessment, single dose, ADP-Glo assay. Format: biochemical, human. As to conditions: 20 μM single dose, total intracellular kinases from HT-29, 45 min. The method, then: Inhibitory activity against kinases of the selected compounds was examined using homogeneous protein kinases extracted from HT-29 cell line. The screening assay was performed in a single dose concentration (20 μM) by using ADP-Glo assay (Promega, Madison, WI, USA).
Briefly, protein kinases were added into a 96-well plate followed by addition of the synthesized compounds at the tested dose (20 μM). After 45 min of exposure, kinase activity was assessed using a luminescent luciferase/luciferin reaction. Luminescence quantification was measured by using a Varioskan™ LUX multimode microplate reader (Thermo Scientific, Waltham, MA, USA). Kinase inhibition effect of tested compounds was expressed as the percentage of remaining kinase activity relative to vehicle kinase reaction.
A general note: In ADP-Glo the light output rises with the ADP produced.

Take `Cc1nc2sc3c(c2c(=O)n1NC(=S)Nc1ccccc1)CCCC3` [Compound 5, 1-(2-Methyl-4-oxo-5,6,7,8-tetrahydrobenzo[4,5]thieno[2,3-d]pyrimidin-3(4H)-yl)-3-phenylthiourea]: the melting point – broadly, the temperature, or range, at which the solid turns liquid – lay in the range of 138 to 140 °C.

`Cc1nc2sc3c(c2c(=O)n1NC(=O)CNc1cc(C(C)(C)C)no1)CCCC3` [Compound 9a, 2-(3-Tert-butylisoxazol-5-ylamino)-N-(2-methyl-4-oxo-5,6,7,8-tetrahydrobenzo[4,5]thieno[2,3-d]pyrimidin-3(4H)-yl)acetamide]: the melting point is 89 to 92 °C. Further, 1.21 ± 0.34 µM corresponded to half-maximal inhibition in data set [1] (IC50). The IC50 (in general, the concentration needed to halve the response being measured) in data set [2] was determined as 20.4 ± 2.8 µM. Further, 7.2 ± 1.9 µM corresponded to half-maximal inhibition in data set [3] (IC50). Moreover, in data set [4], the IC50 turned out to be 11.3 ± 5.6 µM and the “Selectivity Index (SI) (IC50 of CCD 841/IC50 of HT29)” value (shortened to “Selectivity Index (SI)”) turned out to be 9.4. Further, the concentration for half-maximal inhibition (IC50) in data set [5] came to 6.62 ± 0.7 µM. The “growth inhibitory activities against HT-29 cells (preliminary assay)” value (from here on “growth inhibitory activities”) in data set [6] is on record as “moderate to significant”.

For the molecule `Cc1nc2sc3c(c2c(=O)n1NC(=O)CN1CCN(C)CC1)CCCC3` [Compound 10b, N-(2-methyl-4-oxo-5,6,7,8-tetrahydrobenzo[4,5]thieno[2,3-d]pyrimidin-3(4H)-yl)-2-(4-methylpiperazin-1-yl)acetamide], the melting point lay in the range of 187 to 189 °C. For the same molecule, in data set [6], the cytotoxic profile entry is listed as “weak cytotoxic profile”.

For `Cc1nc2sc3c(c2c(=O)n1NC(=O)CCl)CCCC3` [Compound 8, 2-Chloro-N-(2-methyl-4-oxo-5,6,7,8-tetrahydrobenzo[4,5]thieno[2,3-d]pyrimidin-3(4H)-yl)acetamide], the half-maximal inhibitory concentration (IC50) in data set [1] is 2 ± 0.62 µM; in data set [3] it was 11 ± 0.8 µM; in data set [4] it was 151 ± 20.2 µM; in data set [5], 13.5 ± 2.7 µM. In data set [7], this molecule came in with a kinase inhibition of 49.6%. Moreover, in data set [4], the “Selectivity Index (SI)” value is 75.5. In data set [6], the “growth inhibitory activities” value was “moderate to significant”.

The molecule `Cc1nc2sc3c(c2c(=O)n1NC(=O)CN1CCOCC1)CCCC3` [Compound 10a, N-(2-methyl-4-oxo-5,6,7,8-tetrahydrobenzo[4,5]thieno[2,3-d]pyrimidin-3(4H)-yl)-2-morpholinoacetamide] yielded a melting point of 222 to 225 °C. The molecule also yielded an IC50 in data set [1] of 167 ± 8.15 µM. In data set [7], this molecule registered a kinase inhibition of 75.1%. For the same molecule, the half-inhibitory concentration (IC50) in data set [2] stood at 17.8 ± 3.8 µM. In addition, the IC50 in data set [3] was 105 ± 36.4 µM. Moreover, the IC50 in data set [5] turned out to be 188 ± 28.2 µM. In data set [6], the “growth inhibitory activities” value was “moderate to significant” and the cytotoxic profile entry is listed as “weak cytotoxic profile”.

Regarding `CC1=CC(=O)N(n2c(C)nc3sc4c(c3c2=O)CCCC4)C1=O` [Compound 4, 3-Methyl-1-(2-methyl-4-oxo-5,6,7,8-tetrahydrobenzo[4,5]thieno[2,3-d]pyrimidin-3(4H)-yl)-1H-pyrrole-2,5-dione], the melting point lay within 125 to 127 °C. Further, the “growth inhibition at concentration 100 µM” value in data set [6] (100 µM, preliminary assay) was “weak growth inhibition”.

Take `Nn1c(Nc2ccccc2)nc2sc3c(c2c1=O)CCCC3` [Compound 12, 3-Amino-2-phenylamino-5,6,7,8-tetrahydrobenzo[4,5]thieno[2,3-d]pyrimidin-4(3H)-one]: the melting point lay in the range of 198 to 200 °C. In data set [7], this molecule had a kinase inhibition of 65.3%. The half-inhibitory concentration (IC50) in data set [2] is 27.2 ± 5.6 µM.

In the case of `COc1cccc2c1C(=O)c1c(O)c3c(c(O)c1C2=O)C[C@@](O)(C(=O)CO)C[C@@H]3O[C@H]1C[C@H](N)[C@H](O)[C@H](C)O1` [Dox, Doxorubicin, reference compound], the values for the IC50 in data set [1], in data set [3] and in data set [5] were 1.4 ± 1.16 µM, 8.43 ± 0.5 µM and 13.9 ± 2.2 µM, respectively.

`Cc1nc2sc3c(c2c(=O)n1NC(=O)CNc1cc(C(C)(C)C)on1)CCCC3` [Compound 9b, 2-(5-Tert-butylisoxazol-3-ylamino)-N-(2-methyl-4-oxo-5,6,7,8-tetrahydrobenzo[4,5]thieno[2,3-d]pyrimidin-3(4H)-yl)acetamide] gave a melting point of 98 to 100 °C. This molecule also yielded a concentration for half-maximal inhibition (IC50) in data set [1] of 0.85 ± 0.16 µM. The same molecule came in with a kinase inhibition in data set [7] of 13.05%. Moreover, the IC50 in data set [2] was 47.6 ± 9.3 µM. This molecule yielded a 50% inhibitory concentration (IC50) in data set [3] of 16.3 ± 2.3 µM. In data set [4], the IC50 came out at 17.2 ± 1.4 µM and the “Selectivity Index (SI)” value is 20.2. In data set [5], the concentration for half-maximal inhibition (IC50) worked out at 9.11 ± 0.3 µM. Moreover, in data set [6], the “growth inhibitory activities” value is recorded as “moderate to significant”.

For the molecule `Cc1nc2sc3c(c2c(=O)n1NCC(=O)Nc1cc(C(C)(C)C)on1)CCCC3` [Compound 7b, 2-(2-Methyl-4-oxo-5,6,7,8-tetrahydrobenzo[4,5]thieno[2,3-d]pyrimidin-3(4H)-ylamino)-N-(5-tert-butylisoxazol-3-yl)acetamide], the melting point lay in the range of 128 to 130 °C.

As to `Cc1nc2sc3c(c2c(=O)n1N1C(=O)CN(c2ccccc2)C1=S)CCCC3` [Compound 6, 2-Methyl-3-(5-oxo-3-phenyl-2-thioxoimidazolidin-1-yl)-5,6,7,8-tetrahydrobenzo[4,5]thieno[2,3-d]pyrimidin-4(3H)-one], the melting point was in the range of 198 to 200 °C.

The molecule `Cc1nc2sc3c(c2c(=O)n1NCC(=O)Nc1cc(C(C)(C)C)no1)CCCC3` [Compound 7a, 2-(2-Methyl-4-oxo-5,6,7,8-tetrahydrobenzo[4,5]thieno[2,3-d]pyrimidin-3(4H)-ylamino)-N-(3-tert-butylisoxazol-5-yl)acetamide] returned a melting point of 120 to 122 °C.
